Experiment [1] concerns L. major. The experiment in a line: Growth of L. major promastigotes in liquid medium with drug. It is filed as cell-based, Leishmania major.
The test system of experiment [2] is Starch-elicited peritoneal macrophages. The experiment in a line: Infection of starch-elicited peritoneal macrophages in vitro. It is filed as cell-based, mouse. The settings on record: thymidine 100 μg/ml added to the medium.
Experiment [3] in a line: In vivo rescue of dhfr-ts- phenotype with thymidine osmotic pumps. Details: species or system mice. The conditions noted are these: continuous thymidine supplementation.
In experiment [4] the test system is draining lymph node cells. The experiment is classed as cell-based, mouse.

Entries after “also recorded” stand apart in the source; their conditions may differ.

Turning to `CN(Cc1cnc2nc(N)nc(N)c2n1)c1ccc(C(=O)N[C@@H](CCC(=O)O)C(=O)O)cc1` [MTX, methotrexate], the EC50 in experiment [1] (Leishmania major, wild-type or heterozygous (+/HYG) cells, liquid media, read-out: concentration of MTX required to inhibit cell growth by 50% (EC50)) is roughly 1000 nM. The “growth in presence of MTX” value in experiment [1] (dhfr-ts^− NEO/HYG knockout, 100 μM MTX, liquid media) is listed as “grew well”.
Consider `CN[C@H]1C[C@@H](N)[C@H](O)[C@@H](O[C@@H]2O[C@H](CO)[C@H](O)[C@@H]3OC4(O[C@H]23)O[C@H]([C@@H](N)CO)[C@H](O)[C@H](O)[C@H]4O)[C@@H]1O` (stereo partly shown) [hygromycin B], for which the “hygromycin B concentration resulting in a 50% reduction in growth” value in experiment [1] (+/HYG line) was found to be 200 μg per ml.
As for `Cc1cn([C@H]2C[C@H](O)[C@@H](CO)O2)c(=O)[nH]c1=O` [thymidine], the “effect of thymidine on dhfr-ts^− in macrophages” value in experiment [2] is “restored both survival and replication”. The “restoration of animal infectivity of dhfr-ts^− by thymidine supplementation” value in experiment [3] is “partially restored; also recorded: partially restore infectivity”.
Consider bacillus Calmette-Guerin, for which, in experiment [4], the “proliferation as [3H]thymidine incorporation” value is reported as 1100±1000 cpm.

B1: ovalbumin (protein, UniProt P01012 2-386, looked up)
Ovalbumin: GSIGAASMEFCFDVFKELKVHHANENIFYCPIAIMSALAMVYLGAKDSTRTQINKVVRFDKLPGFGDSIEAQCGTSVNVHSSLRDILNQITKPNDVYSFSLASRLYAEERYPILPEYLQCVKELYRGGLEPINFQTAADQARELINSWVESQTNGIIRNVLQPSSVDSQTAMVLVNAIVFKGLWEKAFKDEDTQAMPFRVTEQESKPVQMMYQIGLFRVASMASEKMKILELPFASGTMSMLVLLPDEVSGLEQLESIINFEKLTEWTSSNVMEERKIKVYLPRMKMEEKYNLTSVLMAMGITDVFSSSANLSGISSAESLKISQAVHAAHAEINEAGREVVGSAEAGVDAASVSEEFRADHPFLFCIKHIATNAVLFFGRCVSP
notes: antigen preparation used as specificity control in lymph node proliferation assay
On to B1, for which the “proliferation as [3H]thymidine incorporation” value in experiment [4] is 2600±1100 cpm.

(Values after US6410250B1 (priority 1996, dated 2002).)
